In PMC10509784 (RSC Advances, 2023):
Like-named read-outs stand apart in the source and are kept apart here.

Key:
Assay type in all cases: cell-based
Wi-38 = assay: MTT cytotoxicity on normal fibroblasts; details: Homo sapiens, WI-38, read-out: Wi-38 IC50
MDA-MB 231 = assay: MTT cytotoxicity on MDA-MB 231 breast cancer cells; details: Homo sapiens, MDA-MB-231, read-out: MDA-MB 231 IC50
MCF-7 = assay: MTT cytotoxicity on MCF-7 breast cancer cells
BAX [1] = assay: BAX expression in treated MCF-7 cells; details: for Relative fold change in BAX expression: MCF-7, mean ± SEM; for overexpression of apoptosis regulator BAX: tested cancer cell lines, MCF-7 and MDA-MB 231
caspase 3/7 [2] = assay: Caspase 3/7 activation assay in MCF-7 cells; details: for Relative fold activation of caspase 3/7: MCF-7 treated with IC50, mean ± SEM; for activation of caspase 3/7: treated breast cancer cell lines (MCF-7 and MDA-MB 231), IC50s
P53 [3] = assay: Quantitative detection of P53 expression in treated MCF-7 cells; details: MCF-7, vs control, mean ± SEM
Bcl-2 [4] = assay: Bcl-2 expression in treated MCF-7 cells; details: for Relative fold change in Bcl-2 expression: MCF-7, mean ± SEM; for diminished levels of Bcl-2: tested cancer cell lines, MCF-7 and MDA-MB 231
BAX [5] = assay: BAX expression in treated MDA-MB 231 cells; details: MDA-MB 231, mean ± SEM
P53 [6] = assay: Quantitative detection of P53 expression in treated MDA-MB 231 cells; details: MDA-MB 231, vs control, mean ± SEM
caspase 3/7 [7] = assay: Caspase 3/7 activation assay in MDA-MB 231 cells; details: MDA-MB 231 treated with IC50, mean ± SEM
Bcl-2 [8] = assay: Bcl-2 expression in treated MDA-MB 231 cells; details: MDA-MB 231, mean ± SEM
[9] = Homo sapiens, MCF7, read-out: MCF-7 IC50, MTT, mean ± SEM
[10] = read-out: MCF-7 IC50, MTT, mean ± SEM

Structure (SMILES)	IC50 (Wi-38) [µM]	IC50 (MDA-MB 231) [µM]	IC50 (MCF-7; [9]) [µM]	Relative fold change in BAX expression (BAX [1]) [fold]	overexpression of apoptosis regulator BAX (BAX [1])	Relative fold activation of caspase 3/7 (caspase 3/7 [2]) [fold]	activation of caspase 3/7 (caspase 3/7 [2])	Relative fold change in the P53 expression (P53 [3]) [fold]	IC50 (MCF-7; [10]) [µM]	Relative fold change in Bcl-2 expression (Bcl-2 [4]) [fold]	diminished levels of Bcl-2 (Bcl-2 [4])	Relative fold change in BAX expression (BAX [5]) [fold]	Relative fold change in the P53 expression (P53 [6]) [fold]	Relative fold activation of caspase 3/7 (caspase 3/7 [7]) [fold]	Relative fold change in Bcl-2 expression (Bcl-2 [8]) [fold]	Relative fold change in the P53 expression (P53 [6]; listed as doxorubicin) [fold]	Relative fold change in the P53 expression (P53 [3]; listed as doxorubicin) [fold]
CCOC(=O)c1ccc(NC(=O)C(c2ccccc2)N(C(=O)C(F)(F)F)c2ccccc2)cc1 (centres unmarked) [Compound 2, Ethyl-4-(-phenyl-2-(2,2,2-trifluoro-N-phenylacetamido)acetamido)benzoate]	0.147 ± 0.02	0.472 ± 0.013	0.369 ± 0.014	–	–	–	–	–	–	–	–	–	–	–	–	–	–
CCOC(=O)c1ccc(NC(=O)C(c2ccccc2)N(C(=O)c2ccccc2C)c2ccccc2)cc1 (centres unmarked) [Compound 3, Ethyl-4-(2-(2-methyl-N-phenylbenzamido)-2-phenylacetamido)benzoate]	1.33 ± 0.084	0.306 ± 0.014	~0.08	2.448 ± 0.057	2.3–3.3 folds	3.470 ± 0.0485	2.6–4.1 folds	4.110 ± 0.1014	0.086 ± 0.016	0.217 ± 0.006	0.13–0.49 folds	–	–	–	–	–	–
CCOC(=O)c1ccc(NC(=O)C(c2ccccc2)N(C(=O)c2ccccc2I)c2ccccc2)cc1 (centres unmarked) [Compound 4, Ethyl-4-(2-(2-iodo-N-phenylbenzamido)-2-phenylacetamido)benzoate]	0.418 ± 0.033	0.188 ± 0.044	0.096 ± 0.007	2.747 ± 0.1285	2.3–3.3 folds	3.113 ± 0.1012	2.6–4.1 folds	4.137 ± 0.0407	–	0.233 ± 0.0017	0.13–0.49 folds	2.338 ± 0.021	3.309 ± 0.110	2.618 ± 0.1615	0.496 ± 0.005	–	–
CCOC(=O)c1ccc(NC(=O)C(c2ccccc2)N(C(=O)c2ccccc2[N+](=O)[O-])c2ccccc2)cc1 (centres unmarked) [Compound 5, Ethyl-4-(2-(2-nitro-N-phenylbenzamido)-2-phenylacetamido)benzoate]	0.57 ± 0.072	0.302 ± 0.024	0.229 ± 0.042	–	–	–	–	–	–	–	–	–	–	–	–	–	–
CCOC(=O)c1ccc(NC(=O)C(c2ccccc2)N(C(=O)c2cc([N+](=O)[O-])cc([N+](=O)[O-])c2)c2ccccc2)cc1 (centres unmarked) [Compound 6, Ethyl-4-(2-(3,5-dinitro-N-phenylbenzamido)-2-phenylacetamido)benzoate]	0.538 ± 0.025	0.37 ± 0.094	0.143 ± 0.016	–	–	–	–	–	–	–	–	–	–	–	–	–	–
CCOC(=O)c1ccc(N2C(=O)C(c3ccccc3)N(c3ccccc3)C2=O)cc1 (centres unmarked) [Compound 8, Ethyl-4-(2,5-dioxo-3,4-diphenylimidazolidin-1-yl)benzoate]	0.953 ± 0.037	0.146 ± 0.034	0.078 ± 0.072	3.195 ± 0.082	2.3–3.3 folds	3.763 ± 0.011	2.6–4.1 folds	4.810 ± 0.1014	–	0.163 ± 0.0035	0.13–0.49 folds	2.479 ± 0.030	3.733 ± 0.023	2.945 ± 0.0885	0.454 ± 0.010	–	–
CCOC(=O)c1ccc(NC(=O)C2(OC(=O)c3ccccc3C)CCCCC2)cc1 [Compound 9, 1-((4-(Ethoxycarbonyl)phenyl)carbamoyl)cyclohexyl-2-methylbenzoate]	0.608 ± 0.012	0.445 ± 0.004	0.44 ± 0.006	–	–	–	–	–	–	–	–	–	–	–	–	–	–
CCOC(=O)c1ccc(NC(=O)C2(OC(=O)c3ccc(N=[N+]=[N-])cc3)CCCCC2)cc1 [Compound 10, 1-((4-(Ethoxycarbonyl)phenyl)carbamoyl)cyclohexyl-4-azidobenzoate]	0.505 ± 0.001	0.47 ± 0.012	0.439 ± 0.005	–	–	–	–	–	–	–	–	–	–	–	–	–	–
CCOC(=O)c1ccc(NC(=O)C2(OC(=O)c3ccc([N+](=O)[O-])cc3)CCCCC2)cc1 [Compound 11, 1-((4-(Ethoxycarbonyl)phenyl)carbamoyl)cyclohexyl 4-nitrobenzoate]	0.516 ± 0.011	0.756 ± 0.175	0.591 ± 0.035	–	–	–	–	–	–	–	–	–	–	–	–	–	–
CCOC(=O)c1ccc(NC(=O)C2(OC(=O)c3ccc(NS(=O)(=O)c4ccccc4)cc3)CCCCC2)cc1 [Compound 12, 1-((4-(Ethoxycarbonyl)phenyl)carbamoyl)cyclohexyl-4-(phenylsulfonamido)benzoate]	0.633 ± 0.001	0.135	0.065 ± 0.05	3.337 ± 0.1485	2.3–3.3 folds	4.105 ± 0.0795	2.6–4.1 folds	5.168 ± 0.0676	–	0.129 ± 0.0027	0.13–0.49 folds	2.683 ± 0.065	4.312 ± 0.075	3.304 ± 0.0745	0.376 ± 0.037	–	–
CCOC(=O)c1ccc(NC(=O)C2(OC(=O)CNS(=O)(=O)c3ccccc3)CCCCC2)cc1 [Compound 13, Ethyl 4-(1-(2-(phenylsulfonamido)acetoxy)cyclohexanecarboxamido)benzoate]	0.59 ± 0.026	0.513 ± 0.066	0.142 ± 0.027	–	–	–	–	–	–	–	–	–	–	–	–	–	–
O=C(O)OC1(C(=O)Nc2ccc(C(=O)O)cc2)CCCCC1 [Compound 15, 4-(1-(Carboxyoxy)cyclohexane-1-carboxamido)benzoic acid]	0.827 ± 0.004	0.261 ± 0.025	0.264 ± 0.159	–	–	–	–	–	–	–	–	–	–	–	–	–	–
NNC(=O)c1ccc(NC(=O)C2(O)CCCCC2)cc1 [Compound 16, N-(4-(Hydrazinecarbonyl)phenyl)-1-hydroxycyclohexane-1-carboxamide]	3.327 ± 0.032	1.03 ± 0.036	0.968 ± 0.036	–	–	–	–	–	–	–	–	–	–	–	–	–	–
O=C(NNC(=S)Nc1ccccc1)c1ccc(NC(=O)C2(O)CCCCC2)cc1 [Compound 17, 1-Hydroxy-N-(4-(2-(phenylcarbamothioyl)hydrazine-1-carbonyl)phenyl)cyclohexane-1-carboxamide]	1.54 ± 0.122	0.518 ± 0.081	~0.08	3.042 ± 0.0365	2.3–3.3 folds	3.677 ± 0.0145	2.6–4.1 folds	4.377 ± 0.144	0.082 ± 0.002	0.201 ± 0.0075	0.13–0.49 folds	–	–	–	–	–	–
COc1cccc2c1C(=O)c1c(O)c3c(c(O)c1C2=O)C[C@@](O)(C(=O)CO)C[C@@H]3O[C@H]1C[C@H](N)[C@H](O)[C@H](C)O1 [Doxorubicin, reference compound]	0.272 ± 0.053	2.83 ± 0.173	0.478 ± 0.076	1.556 ± 0.054	–	1.881 ± 0.028	–	2.148 ± 0.174	–	0.592 ± 0.031	–	1.232 ± 0.019	1.623 ± 0.122	1.272 ± 0.074	0.798 ± 0.044	1.6	2.1
